Reference: US8785416B2, “Sulphated disaccharides for the treatment of neurodegenerative and/or neurovascular diseases” (Bioiberica, S.A., priority 2009, dated 2014)

What was measured:
TNFα = TNFα production in LPS-activated cerebral cortex astrocytes (RT-PCR); format: cell-based, rat; conditions: 0.03 μM, simultaneous with 10 μg/mL LPS for 2 hours
Description: Newborn male rats aged 2-3 days were used. After a craniotomy, both cortices were extracted and deposited in a Petri dish with cold PBS. Under a microscope magnifying lens, the meninges of each cortex were extracted. Once clean, they were submersed in cold DMEM and a mechanical dissection was performed with a pipette. Then, the sample was centrifuged at 1,000 rpm for 5 minutes and the supernatant was decanted. The precipitate was resuspended in DMEM with 20% FBS and a mixture of antibiotics (penicillin/streptomycin). Finally, it was passed through a 70 μm filter and seeded in a 75 cm^2 flask with an aerated filter stopper. The calculation for the seeding of the cells was one flask (15 mL of medium) for every newborn used. […]
Subsequently, the medium of each flask was collected and taken to 50 mL Falcon tubes, they were centrifuged for 5 minutes at 1,000 rpm and the supernatant was decanted. The precipitate was resuspended in DMEM with 10% FBS and antibiotics and the cells were counted for their subsequent seeding.
The induction of inflammation in the astrocytes was performed by means of adding 10 μg/mL lipopolysaccharide together with the compounds to be studied (compound Ic at 0.03 μM and chondroitin sulphate at 10 μM) for 2 hours. […] The quantification was performed by the direct measurement of absorbance at 260/280 nm in a Nanodrop® spectrophotometer. […]

rat hippocampal slices = test: Oxygen and glucose deprivation (1 hour OGD, 2 hours reoxygenation) in hippocampal slices, LDH release; format: cell-based
Description: Male Spague Dawley strain rats (250-325 g) were used. After anaesthesia by means of an intraperitoneal injection of 60 mg/Kg sodium pentobarbital (Euta-Lender®), they were decapitated with a guillotine and the brain was extracted after a craniotomy. The brain was immediately submersed in a dissection solution, a cold (4° C.) modified Krebs-Henseleit solution at pH 7.4, the composition of which is: 120 mM NaCl, 2 mM KCl, 0.5 mM CaCl2, 26 mM NaHCO3, 10 mM MgSO4, 1.18 mM KH2PO4, 11 mM glucose and 200 mM sucrose, bubbled with 95% O2-5% CO2. The hippocampi were isolated, embedded in 2% low melting point agarose (Sigma-Aldrich), and cut into 350 μm transverse slices in a vibratome (Leica VT1000S).
After the cutting in the vibratome, the slices were transferred to a vial with sucrose-free dissection Krebs solution, bubbled with 95% O2-5% CO2 for 60 minutes (equilibrium period). […]
For the protocol of 1 hour of OGD followed by 2 hours of reoxygenation, the viability was determined by measuring the release of LDH into the extracellular medium according to the method described in Example 3. The quantification of LDH was performed in samples taken (i) after the preincubation period, (ii) after the hour of OGD and (iii) after each hour of reoxygenation (1 hour and 2 hours).

methyl 2-acetamido-2-deoxy-3-O-(β-D-glucopyranosyluronic acid)-4,6-di-O-sulpho-α-D-glucopyranoside, trisodium salt [compound Ic]
reduction of the production of TNFα (TNFα): 75% | protective effect against cell death (LDH release) (rat hippocampal slices; 1 μM, at 2 hours of reoxygenation after 1 hour OGD): 40% | effect on cell death after one hour of OGD followed by 2 hours of reoxygenation (rat hippocampal slices; 1 and 10 μM): reduced cell death in a concentration-dependent
